Tests used:
Experiment in all cases: relative viability (nuclei count vs DMSO), 5 days (fraction); higher = more cells survive
Shikonin + OSI-027 = compound: CC(C)=CC[C@@H](O)C1=CC(=O)c2c(O)ccc(O)c2C1=O [Shikonin] + COc1cccc2cc(-c3nc([C@H]4CC[C@H](C(=O)O)CC4)n4ncnc(N)c34)[nH]c12 [OSI-027] (partner 0.5 µM)
Outline: (§1)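 Medians of duplicate plates are given as relative viability. That measure is the nuclei count in treated wells divided by the count in vehicle wells. Counts were taken on 4× images of lung cancer cell lines in 1536-well plates, 5 days after pin-tool dosing the day after seeding with one drug alone or a fixed anchor-drug dose plus five library-drug doses (not always all listed) in √10 steps.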

Shikonin + Tozasertib = compound: CC(C)=CC[C@@H](O)C1=CC(=O)c2c(O)ccc(O)c2C1=O [Shikonin] + Cc1cc(Nc2cc(N3CCN(C)CC3)nc(Sc3ccc(NC(=O)C4CC4)cc3)n2)n[nH]1 [Tozasertib] (partner 0.1 µM)
Outline: as §1

Shikonin + AZD7762 = compound: CC(C)=CC[C@@H](O)C1=CC(=O)c2c(O)ccc(O)c2C1=O [Shikonin] + NC(=O)Nc1cc(-c2cccc(F)c2)sc1C(=O)N[C@H]1CCCNC1 [AZD7762] (partner 0.2 µM)
Outline: as §1

[1] = compound: CC(C)N(CCCNC(=O)Nc1ccc(C(C)(C)C)cc1)C[C@H]1O[C@@H](n2ccc3c(N)ncnc32)[C@H](O)[C@@H]1O + Cc1nc(NC(=O)N2CCC[C@H]2C(N)=O)sc1-c1ccnc(C(C)(C)C(F)(F)F)c1 [Alpelisib] (partner 2 µM)
Outline: as §1

| Cell Line | relative viability (Shikonin + OSI-027; first compound 0.01 µM) | relative viability (Shikonin + OSI-027; first compound 0.1 µM) | relative viability (Shikonin + OSI-027; first compound 0.3162 µM) | relative viability (Shikonin + OSI-027; first compound 1 µM) | relative viability (Shikonin + Tozasertib; first compound 0.01 µM) | relative viability (Shikonin + Tozasertib; first compound 0.1 µM) | relative viability (Shikonin + Tozasertib; first compound 0.3162 µM) | relative viability (Shikonin + Tozasertib; first compound 1 µM) | relative viability (Shikonin + AZD7762; first compound 0.01 µM) | relative viability (Shikonin + AZD7762; first compound 0.1 µM) | relative viability (Shikonin + AZD7762; first compound 0.3162 µM) | relative viability (Shikonin + AZD7762; first compound 1 µM) | relative viability ([1]; first compound 0.08 µM) | relative viability ([1]; first compound 0.253 µM) | relative viability ([1]; first compound 0.8 µM) | relative viability ([1]; first compound 2.53 µM) | relative viability ([1]; first compound 8 µM) |
| --- | --- | --- | --- | --- | --- | --- | --- | --- | --- | --- | --- | --- | --- | --- | --- | --- | --- |
| 201T | 0.795 | 0.994 | 0.715 | 0.976 | 0.99 | 1.14 | 0.968 | 0.935 | 0.638 | 0.657 | 0.625 | 0.603 | 1 | 1.03 | 1.02 | 0.98 | 0.962 |
| HCC-827 | 0.821 | 0.86 | 0.9 | 0.761 | 0.452 | 0.456 | 0.432 | 0.453 | 0.203 | 0.216 | 0.2 | 0.197 | 0.922 | 0.938 | – | 0.952 | 0.919 |
| NCI-H2085 | 0.832 | 0.973 | 0.73 | 0.773 | 0.758 | 0.829 | 0.868 | 0.801 | 1.02 | 1.06 | 0.957 | 1.05 | 0.969 | 0.978 | 1.05 | 0.972 | 0.913 |
| NCI-H647 | 0.712 | 0.631 | 0.666 | 0.602 | 0.407 | 0.323 | 0.247 | 0.193 | 0.646 | 0.406 | 0.429 | 0.529 | 1.14 | – | 1.08 | 1.05 | 1.25 |
| A-427 | 0.503 | 0.594 | 0.514 | 0.509 | 0.198 | 0.192 | 0.159 | 0.225 | 0.771 | 0.78 | 0.694 | 0.75 | 1.08 | 1.03 | 1.11 | 1.1 | 1.18 |
| NCI-H460 | 0.834 | 0.755 | 1.11 | 0.879 | 0.456 | 0.496 | 0.483 | 0.414 | 0.739 | 0.874 | 0.597 | 0.658 | 0.378 | 0.582 | 0.442 | 0.301 | 0.396 |
| EMC-BAC-2 | 0.38 | 0.399 | 0.39 | 0.386 | 0.279 | 0.283 | 0.323 | 0.267 | 1.15 | 1.32 | 1.21 | 1.16 | 0.654 | 0.753 | 0.722 | 0.721 | 0.706 |
| LK-2 | 0.168 | 0.241 | 0.203 | 0.227 | 0.178 | 0.154 | 0.165 | 0.154 | 0.368 | 0.428 | 0.424 | 0.231 | 0.923 | 1.02 | 1.01 | 0.934 | 1.02 |
| NCI-H322M | 0.548 | 0.562 | 0.53 | 0.509 | 0.486 | 0.467 | 0.478 | 0.381 | 0.59 | 0.568 | 0.451 | 0.572 | 0.732 | 0.775 | 0.766 | 0.829 | 0.829 |
| NCI-H1975 | 0.728 | 0.763 | 0.7 | 0.68 | 0.865 | 0.83 | 0.764 | 0.701 | 0.746 | 0.683 | 0.808 | 0.8 | 0.555 | 0.529 | 0.586 | 0.611 | 0.567 |
| NCI-H1944 | 0.397 | 0.462 | 0.423 | 0.459 | 0.241 | 0.22 | 0.29 | 0.257 | 0.454 | 0.558 | 0.763 | 0.561 | 0.769 | 0.806 | 0.774 | 0.852 | 0.82 |
| LU99A | 0.271 | 0.344 | 0.265 | 0.305 | 0.248 | 0.281 | 0.298 | 0.234 | 0.381 | 0.334 | 0.687 | 0.323 | 0.477 | 0.445 | 0.54 | 0.555 | 0.503 |
| NCI-H1993 | 0.558 | 0.522 | 0.561 | 0.582 | 0.627 | 0.547 | 0.571 | 0.551 | 0.524 | 0.667 | 0.632 | 0.906 | 0.696 | 0.786 | 0.619 | 0.675 | 0.751 |
| NCI-H2405 | 0.644 | 0.661 | 0.67 | 0.658 | 0.768 | 0.802 | 0.779 | 0.687 | 0.794 | 0.986 | 0.716 | 0.77 | 0.858 | – | 0.789 | 0.89 | 0.795 |
| HCC-15 | 0.719 | 0.705 | 0.692 | 0.744 | 0.459 | 0.445 | 0.33 | 0.465 | 1.33 | 1.18 | 1.34 | 1.24 | 0.79 | 0.863 | 0.891 | 0.93 | 0.811 |
| HCC-44 | 0.512 | 0.513 | 0.466 | 0.747 | 0.901 | 0.732 | 1.19 | 0.937 | 1.03 | 1.01 | 1.05 | 1.04 | 0.811 | 0.785 | 0.744 | 0.787 | 0.806 |
| HCC-78 | 0.338 | 0.377 | 0.353 | 0.401 | 0.465 | 0.433 | 0.402 | 0.372 | 0.647 | 0.74 | 0.534 | 0.694 | 0.272 | 0.289 | 0.323 | 0.334 | 0.315 |
| PC-14 | 0.921 | 0.556 | 1.06 | 0.9 | 0.619 | 0.638 | 0.743 | 0.652 | 0.381 | 0.274 | 0.438 | 0.576 | 0.883 | 0.818 | 0.988 | 0.964 | 0.794 |
| NCI-H2126 | 0.709 | 0.638 | 0.735 | 0.67 | 0.91 | 0.967 | 0.869 | 0.846 | 1.03 | 1.01 | 1.11 | 1.08 | 0.734 | 0.712 | 0.78 | 0.783 | 0.722 |
